In patent US20240287076A1, “COMPOUNDS FOR TARGETING DEGRADATION OF BRUTON'S TYROSINE KINASE” (BIOGEN MA INC., priority 2021, published 2024):

target: T1, BTK (Homo sapiens, UniProt Q06187); test: BTK degradation assay using the HiBiT Method (Nano-Glo HiBiT Lytic Assay, GM01501.3 cells); type: cell-based; conditions: HiBiT Degradation on GM01501.3 BTK @ 6 hours
T1 construct: The GM01501.3 cell line endogenously expresses BTK with a HiBiT fusion tag via CRISPR knock-in at its C-terminal region; endogenous in cells; host or cells: GM01501.3 (GM01501 cells engineered by CRISPR knock-in of HiBiT at the BTK locus)
T1 sequence (Q06187 whole entry, the tested form may be a part): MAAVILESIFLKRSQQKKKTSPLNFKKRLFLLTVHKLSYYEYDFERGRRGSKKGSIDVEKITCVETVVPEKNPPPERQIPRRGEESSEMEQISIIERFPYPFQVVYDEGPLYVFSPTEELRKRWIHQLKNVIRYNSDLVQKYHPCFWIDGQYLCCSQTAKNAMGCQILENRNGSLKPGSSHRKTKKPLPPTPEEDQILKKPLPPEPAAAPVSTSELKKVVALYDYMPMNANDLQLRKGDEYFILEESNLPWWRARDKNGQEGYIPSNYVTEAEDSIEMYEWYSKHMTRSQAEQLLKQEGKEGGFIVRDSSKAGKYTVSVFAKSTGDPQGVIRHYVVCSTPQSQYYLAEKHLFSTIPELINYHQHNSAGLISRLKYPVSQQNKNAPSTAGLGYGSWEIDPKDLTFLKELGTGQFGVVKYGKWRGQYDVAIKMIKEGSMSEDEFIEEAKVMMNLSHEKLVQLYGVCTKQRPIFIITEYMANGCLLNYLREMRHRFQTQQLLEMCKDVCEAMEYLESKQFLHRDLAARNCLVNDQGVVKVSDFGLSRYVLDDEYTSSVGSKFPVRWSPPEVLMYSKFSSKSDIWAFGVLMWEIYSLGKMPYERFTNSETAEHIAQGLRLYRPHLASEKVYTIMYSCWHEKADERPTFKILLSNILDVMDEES
In short: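 Degradation read-out: HiBiT luminescence after lytic reagent addition, giving DC50. Compounds dosed from 10 μM in 11 half-log steps (duplicate) onto GM01501.3 cells, whose endogenous BTK carries a C-terminal HiBiT knock-in tag; 6 h exposure, 37 °C, 5% CO2.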

SMILES | DC50
CC(C)(C)c1nc(C(=O)NCc2ccc(-c3ncnn4cc(C#CC(F)(F)CN5CCC(c6ccc(C7CCC(=O)NC7=O)cc6)CC5)cc34)cc2F)no1 (centres unmarked) [Example 225, 5-tert-butyl-N-[[4-[6-[4-[4-[4-(2,6-dioxo-3-piperidyl)phenyl]-1-piperidyl]-3,3-difluoro-but-1-ynyl]pyrrolo[2,1-f][1,2,4]triazin-4-yl]-2-fluoro-phenyl]methyl]-1,2,4-oxadiazole-3-carboxamide] | > 1000 nM
Cn1nc(N2CCC(=O)NC2=O)c2ccc(C3CCN(Cc4ccc(-c5cc6c(-c7ccc(CNC(=O)c8noc(C(C)(C)C)n8)c(F)c7)ncnn6c5)nc4)CC3)cc21 [Example 243, 5-(tert-butyl)-N-(4-(6-(5-((4-(3-(2,4-dioxotetrahydropyrimidin-1(2H)-yl)-1-methyl-1H-indazol-6-yl)piperidin-1-yl)methyl)pyridin-2-yl)pyrrolo[2,1-f] [1,2,4]triazin-4-yl)-2-fluorobenzyl)-1,2,4-oxadiazole-3-carboxamide] | < 100 nM
Cc1cc(-c2ncnn3cc(N4CCN(C(=O)c5ccccc5CNC(=O)c5ccc(OC6CCC(=O)NC6=O)cc5)CC4)cc23)ccc1CNC(=O)c1noc(C(C)(C)C)n1 (centres unmarked) [Example 193, 5-(tert-butyl)-N-(4-(6-(4-(2-((4-((2,6-dioxopiperidin-3-yl)oxy)benzamido)methyl)benzoyl)piperazin-1-yl)pyrrolo[2,1-f][1,2,4]triazin-4-yl)-2-methylbenzyl)-1,2,4-oxadiazole-3-carboxamide] | < 100 nM
Cc1cc(-c2ncnn3cc(CCCCc4ccc(-c5ccc(C6CCC(=O)NC6=O)cc5)cc4)cc23)ccc1CNC(=O)c1noc(C(C)(C)C)n1 (centres unmarked) [Example 151, 5-tert-butyl-N-[[4-[6-[4-[4-[4-(2,6-dioxo-3-piperidyl)phenyl]phenyl]butyl]pyrrolo[2,1-f][1,2,4]triazin-4-yl]-2-methyl-phenyl]methyl]-1,2,4-oxadiazole-3-carboxamide] | 100 to 500 nM
Cc1cc(-c2ncnn3cc(CCC(F)(F)CN4CCC(c5ccc(C6CCC(=O)NC6=O)cc5)CC4)cc23)ccc1CNC(=O)c1noc(C(C)(C)C)n1 (centres unmarked) [Example 168, 5-tert-butyl-N-[[4-[6-[4-[4-[4-(2,6-dioxo-3-piperidyl)phenyl]-1-piperidyl]-3,3-difluoro-butyl]pyrrolo[2,1-f][1,2,4]triazin-4-yl]-2-methyl-phenyl]methyl]-1,2,4-oxadiazole-3-carboxamide] | < 100 nM
Cn1nc(N2CCC(=O)NC2=O)c2ccc(C3CCN(CCCOc4cc5c(-c6ccc7c(c6)OCCCC7NC(=O)c6noc(C(C)(C)C)n6)ncnn5c4)CC3)cc21 (centres unmarked) [Example 294, 5-(tert-butyl)-N-(8-(6-(3-(4-(3-(2,4-dioxotetrahydropyrimidin-1(2H)-yl)-1-methyl-1H-indazol-6-yl)piperidin-1-yl)propoxy)pyrrolo[2,1-f] [1,2,4]triazin-4-yl)-2,3,4,5-tetrahydrobenzo[b]oxepin-5-yl)-1,2,4-oxadiazole-3-carboxamide] | < 100 nM
Cc1cc(-c2ncnn3cc(N4CCN(C(=O)CCC5CCCN5C(=O)c5ccc(OC6CCC(=O)NC6=O)cc5)CC4)cc23)ccc1CNC(=O)c1noc(C(C)(C)C)n1 (centres unmarked) [Example 181, 5-(tert-butyl)-N-(4-(6-(4-(3-(1-(4-((2,6-dioxopiperidin-3-yl)oxy)benzoyl)pyrrolidin-2-y1)propanoyl)piperazin-1-yl)pyrrolo[2,1-f][1,2,4]triazin-4-yl)-2-methylbenzyl)-1,2,4-oxadiazole-3-carboxamide] | < 100 nM
CC(C)(C)c1nc(C(=O)NCc2ccc(-c3ncnn4cc(CCN5CCC(n6ccc(NC7CCC(=O)NC7=O)n6)CC5)cc34)cc2F)no1 (centres unmarked) [Example 123, 5-tert-butyl-N-[[4-[6-[2-[4-[3-[(2,6-dioxo-3-piperidyl)amino]pyrazol-1-yl]-1-piperidyl]ethyl]pyrrolo[2,1-f][1,2,4]triazin-4-yl]-2-fluoro-phenyl]methyl]-1,2,4-oxadiazole-3-carboxamide] | 100 to 500 nM
CO[C@H]1CN(CCc2cc3c(-c4ccc(CNC(=O)c5noc(C(C)(C)C)n5)c(C)c4)ncnn3c2)CC[C@H]1c1ccc2c(N3CCC(=O)NC3=O)nn(C)c2c1 (single isomer, unassigned) [Example 262] | < 100 nM

Further lines, results first:

DC50 | SMILES
100 to 500 nM | CC(C)(C)c1nc(C(=O)NCc2ccc(-c3ncnn4cc(-c5ccc(CN6CC[C@H](c7ccc(NC8CCC(=O)NC8=O)cc7)CC67CC7)cc5)cc34)cc2F)no1 (stereo partly drawn) [Example 39, 5-tert-butyl-N-[[4-[6-[4-[[(7S)-7-[4-[(2,6-dioxo-3-piperidyl)amino]phenyl]-4-azaspiro[2.5]octan-4-yl]methyl]phenyl]pyrrolo[2,1-f][1,2,4]triazin-4-yl]-2-fluoro-phenyl]methyl]-1,2,4-oxadiazole-3-carboxamide]
< 100 nM | Cc1cc(-c2ncnn3cc(-c4ccc(CN5CCC(c6ccc(NC7CCC(=O)NC7=O)cc6)CC5)cc4)cc23)ccc1CNC(=O)c1noc(C(C)(C)C)n1 (single isomer, unassigned; isomer 2) [Example 3, 5-tert-butyl-N-[[4-[6-[4-[[4-[4-[(2,6-dioxo-3-piperidyl)amino]phenyl]-1-piperidyl]methyl]phenyl]pyrrolo[2,1-f][1,2,4]triazin-4-yl]-2-methyl-phenyl]methyl]-1,2,4-oxadiazole-3-carboxamide isomer 2]
< 100 nM | Cc1cc(-c2ncnn3cc(-c4ccc(-c5n[nH]cc5CN5CCC(c6ccc(C7CCC(=O)NC7=O)cc6)CC5)s4)cc23)ccc1CNC(=O)c1noc(C(C)(C)C)n1 (centres unmarked) [Example 220, 5-(tert-butyl)-N-(4-(6-(5-(4-((4-(4-(2,6-dioxopiperidin-3-yl)phenyl)piperidin-1-yl)methyl)-1H-pyrazol-3-yl)thiophen-2-yl)pyrrolo [2,1-f][1,2,4]triazin-4-yl)-2-methylbenzyl)-1,2,4-oxadiazole-3-carboxamide]
< 100 nM | Cc1cc(-c2ncnn3cc(CN(C)CCN4CCC(c5ccc(C6CCC(=O)NC6=O)cc5)CC4)cc23)ccc1CNC(=O)c1noc(C(C)(C)C)n1 (centres unmarked) [Example 125, 5-tert-butyl-N-[[4-[6-[[2-[4-[4-(2,6-dioxo-3-piperidyl)phenyl]-1-piperidyl]ethyl-methyl-amino]methyl]pyrrolo[2,1-f][1,2,4]triazin-4-yl]-2-methyl-phenyl]methyl]-1,2,4-oxadiazole-3-carboxamide]
< 100 nM | Cc1cc(-c2ncnn3cc(-c4ccc5c(c4)CN(CCCc4ccc(NC6CCC(=O)NC6=O)cc4)C5)cc23)ccc1CNC(=O)c1noc(C(C)(C)C)n1 (centres unmarked) [Example 57, 5-tert-butyl-N-[[4-[6-[2-[3-[4-[(2,6-dioxo-3-piperidyl)amino]phenyl]propyl]isoindolin-5-yl]pyrrolo[2,1-f][1,2,4]triazin-4-yl]-2-methyl-phenyl]methyl]-1,2,4-oxadiazole-3-carboxamide]
100 to 500 nM | Cc1cc(-c2ncnn3cc(-c4ccc(CN(C)CC(F)(F)Cc5ccc(NC6CCC(=O)NC6=O)cc5)cc4)cc23)ccc1CNC(=O)c1noc(C(C)(C)C)n1 (centres unmarked) [Example 150, 5-tert-butyl-N-[[4-[6-[4-[[[3-[4-[(2,6-dioxo-3-piperidyl)amino]phenyl]-2,2-difluoro-propyl]-methyl-amino]methyl]phenyl]pyrrolo[2,1-f][1,2,4]triazin-4-yl]-2-methyl-phenyl]methyl]-1,2,4-oxadiazole-3-carboxamide]
< 100 nM | Cc1cc(-c2ncnn3cc(-c4ccc(CCN5CCC(c6ccc(C7CCC(=O)NC7=O)cc6)CC5)cc4)cc23)ccc1CNC(=O)c1noc(C(C)(C)C)n1 (centres unmarked) [Example 52, 5-tert-butyl-N-[[4-[6-[4-[2-[4-[4-(2,6-dioxo-3-piperidyl)phenyl]-1-piperidyl]ethyl]phenyl]pyrrolo[2,1-f][1,2,4]triazin-4-yl]-2-methyl-phenyl]methyl]-1,2,4-oxadiazole-3-carboxamide]
< 100 nM | Cc1cc(-c2ncnn3cc(CCCCN4CCC(c5ccc(NC6CCC(=O)NC6=O)cc5)CC4)cc23)ccc1CNC(=O)c1noc(C(C)(C)C)n1 (centres unmarked) [Example 130, 5-tert-butyl-N-[[4-[6-[4-[4-[4-[(2,6-dioxo-3-piperidyl)amino]phenyl]-1-piperidyl]butyl]pyrrolo[2,1-f][1,2,4]triazin-4-yl]-2-methyl-phenyl]methyl]-1,2,4-oxadiazole-3-carboxamide]
100 to 500 nM | Cc1cc(-c2ccnc3sc(-c4ccc(CN5CCC(c6ccc(NC7CCC(=O)NC7=O)cc6)CC5)cc4)cc23)ccc1CNC(=O)c1noc(C(C)(C)C)n1 (centres unmarked) [Example 157, 5-tert-butyl-N-[[4-[2-[4-[[4-[4-[(2,6-dioxo-3-piperidyl)amino]phenyl]-1-piperidyl]methyl]phenyl]thieno[2,3-b]pyridin-4-yl]-2-methyl-phenyl]methyl]-1,2,4-oxadiazole-3-carboxamide]
< 100 nM | Cc1cc(-c2ncnn3cc(-c4ccc(CN5CCC(c6ccc(NC7CCC(=O)NC7=O)cc6)CC5)cc4)cc23)ccc1CNC(=O)CCC(C)(C)C (centres unmarked) [Example 81, N-[[4-[6-[4-[[4-[4-[(2,6-dioxo-3-piperidyl)amino]phenyl]-1-piperidyl]methyl]phenyl]pyrrolo[2,1-f][1,2,4]triazin-4-yl]-2-methyl-phenyl]methyl]-4,4-dimethyl-pentanamide]
< 100 nM | Cc1cc(-c2ncnn3cc(-c4nccc(CN5CCC(c6ccc(C7CCC(=O)NC7=O)cc6)CC5)c4F)cc23)ccc1CNC(=O)c1noc(C(C)(C)C)n1 (centres unmarked) [Example 217, 5-(tert-butyl)-N-(4-(6-(4-((4-(4-(2,6-dioxopiperidin-3-yl)phenyl)piperidin-1-yl)methyl)-3-fluoropyridin-2-yl)pyrrolo[2,1-f][1,2,4]triazin-4-yl)-2-methylbenzyl)-1,2,4-oxadiazole-3-carboxamide]
